The record followed here is ChEMBL document CHEMBL2429717 (J Med Chem, 2013).

Bounds are passed on as bounds.

For assay [1], the system named is MDA-MB-435. As to the kind of experiment: Cytotoxicity against human MDA-MB-435 cells assessed as growth inhibition. The format is functional, cell-based.
The nature of assay [2]: Induction of interphase microtubule depolymerization in rat A10 cells. The format is cell-based.
The nature of assay [3]: Induction of interphase microtubule depolymerization in rat A10 cells after 18 to 24 hrs by DAPI staining-based indirect immunofluorescence assay. The format is cell-based.
Assay [4] has as its system MDA-MB-435. As to the kind of experiment: Cytotoxicity against human MDA-MB-435 cells assessed as growth inhibition after 72 hrs by SRB assay. The format is functional, cell-based. The note with it: MDA-MB-435, 72 h. Background: Sulforhodamine B stains cellular protein and so reports cell mass.
The target in another assay is Tubulin. As to the kind of experiment: Displacement of [3H]colchicine from tubulin (unknown origin). The format is protein-complex assay, Homo sapiens.
For another assay, the system named is Jurkat. As to the kind of experiment: Cytotoxicity against human Jurkat cells assessed as growth inhibition. The format is functional, cell-based.

The EC50 is the concentration at which the effect is half-maximal. Usually pEC50 stands for −log10 of the EC50, conventionally taken in molar units. As a reminder, the Kd is the concentration at which binding is half-saturated. Higher therefore signals lower affinity.

In the case of `CCOC(=O)c1[nH]c(Br)c(-c2ccc(OC)cc2)c1Br`, in the assay on MDA-MB-435 [1] (read-out: IC50), the IC50 worked out at 0.843 µM. For the same molecule, the IC50 in the assay with MDA-MB-435 [1] (read-out: pIC50 (converted)) was 0.851 µM. For the same molecule, in assay [2], a half-maximal response (EC50) required 7 µM and the pEC50 came to 5.15.

As to `COc1ccc(C(=O)c2[nH]c(C(=O)c3ccc(OC)cc3)c(-c3ccc(OC)cc3)c2-c2ccc(OC)cc2)cc1`, the IC50 in the assay on MDA-MB-435 [1] (read-out: IC50) was determined as 100 µM. Moreover, in the assay on MDA-MB-435 [1] (read-out: pIC50 (converted)), the IC50 was 100 µM. In assay [2], this molecule yielded an EC50 of 500 µM and a pEC50 of 3.3.

With `Cc1nc2c(c(N(C)c3ccccc3)n1)C[C@H](C)C2`, the IC50 with MDA-MB-435 [1] (read-out: IC50) amounted to 1.67 µM. In addition, the IC50 in the assay with MDA-MB-435 [1] (read-out: pIC50 (converted)) was 1.66 µM. In assay [2], this molecule had an EC50 of 43 µM and a pEC50 of 4.37.

In assay [3], `COc1ccc(-c2c(Br)[nH]c(C(=O)OCc3ccccc3)c2Br)cc1OC` registered an EC50 of 100 µM and a pEC50 of 4.

In assay [3], `COc1ccc(N(C)c2nc(N)nc3cc(C)[nH]c23)cc1` registered an EC50 of 8.4 µM and a pEC50 of 5.08. Besides, the IC50 in the assay on MDA-MB-435 [4] (read-out: IC50) stood at 0.298 µM. Besides, in the assay with MDA-MB-435 [4] (read-out: pIC50 (converted)), the IC50 is 0.295 µM.

In assay [3], `COc1ccc(-c2c(Br)[nH]c(C(=O)OCCN(C)C)c2Br)cc1OC.Cl` gave an EC50 of 100 µM and a pEC50 of 4.

As to `COc1ccc(-c2c(Br)[nH]c(C(=O)OC(C)(C)C)c2Br)cc1OC`, in assay [3], the EC50 was determined as 25 µM and the pEC50 turned out to be 4.6.

Consider `CCCOC(=O)c1[nH]c(Br)c(-c2ccc(OC)c(OC)c2)c1Br`, for which, in assay [3], a half-maximal effect (EC50) was put at 3.3 µM and the pEC50 was 5.48.

In assay [3], `COc1ccc(N(C)c2nc(C)nc3cc(C)[nH]c23)cc1` had an EC50 of 0.22 µM and a pEC50 of 6.66. In addition, the IC50 in the assay on MDA-MB-435 [4] (read-out: IC50) worked out at 0.03 µM. In the assay on MDA-MB-435 [4] (read-out: pIC50 (converted)), the IC50 was 0.0302 µM.

Turning to `COc1ccc(-c2oc3c(OC)c(OC)c(OC)c(O)c3c(=O)c2OC)cc1O`, at Tubulin, the Kd came out at 0.13 µM.

Consider `CCOC(=O)c1[nH]c(C(=O)c2ccc(OC)cc2)c(-c2ccc(OC)cc2)c1-c1ccc(OC)cc1`, for which the IC50 in the assay on MDA-MB-435 [1] (read-out: IC50) was 100 µM. Also, the IC50 with MDA-MB-435 [1] (read-out: pIC50 (converted)) is 100 µM. In addition, in assay [2], the EC50 was 500 µM and the pEC50 was 3.3.

Regarding `CCOC(=O)c1[nH]c(Br)c(-c2ccc(OC(F)(F)F)cc2)c1Br`, the IC50 in the assay with MDA-MB-435 [1] (read-out: IC50) was 1.7 µM. In the assay with MDA-MB-435 [1] (read-out: pIC50 (converted)), the IC50 was 1.7 µM. Moreover, in assay [2], the response was half-maximal at 27 µM (EC50) and the pEC50 is on record as 4.57.

In assay [3], `COc1ccc(-c2c(Br)[nH]c(C(=O)OCCCN(C)C)c2Br)cc1OC` showed an EC50 of 50 µM and a pEC50 of 4.3.

As for `CCOC(=O)c1[nH]c(Br)c(-c2cccc3ccccc23)c1Br`, the IC50 in the assay with MDA-MB-435 [1] (read-out: IC50) is 3.2 µM; with MDA-MB-435 [1] (read-out: pIC50 (converted)), 3.24 µM. The same molecule had a concentration giving a half-maximal response (EC50) in assay [2] of 7 µM. The pEC50 in assay [2] came to 5.15.

As to `COc1cccc(N(C)c2nc(C)nc3c2C[C@@H](C)C3)c1`, the IC50 was 0.402 µM in the assay with MDA-MB-435 [1] (read-out: IC50) and 0.398 µM in the assay on MDA-MB-435 [1] (read-out: pIC50 (converted)). The molecule further gave an EC50 in assay [2] of 6.9 µM. The molecule further yielded a pEC50 in assay [2] of 5.16.

Regarding `CCOC(=O)c1[nH]c(Br)c(-c2ccc(Br)cc2)c1Br`, in assay [2], a half-maximal response (EC50) required 94 µM and the negative-log EC50 (pEC50) is reported as 4.03.

On to `CCOC(=O)c1c(-c2ccc(OC)c(OC)c2)c(-c2ccc(OC)c(OC)c2)cn1CCc1ccc(OC)c(OC)c1`, for which the IC50 with MDA-MB-435 [1] (read-out: IC50) is 100 µM. The IC50 in the assay with MDA-MB-435 [1] (read-out: pIC50 (converted)) is 100 µM. In assay [2], this molecule came in with an EC50 of 500 µM and a pEC50 of 3.3.

With `COc1ccc(OC(=O)c2[nH]c(Br)c(-c3ccc(OC)c(OC)c3)c2Br)cc1`, in assay [3], the EC50 was 100 µM and the pEC50 is given as 4.

Take `CCOC(=O)c1[nH]c(Br)c(-c2ccccc2)c1Br`: in the assay with MDA-MB-435 [1] (read-out: pIC50 (converted)), the IC50 was 10.2 µM. In assay [2], the EC50 came out at 167 µM and the pEC50 was determined as 3.78.

With `CCOC(=O)c1[nH]c(Br)c(-c2cc(OC)c(OC)cc2Br)c1Br`, the IC50 with MDA-MB-435 [1] (read-out: IC50) was 2.6 µM. Moreover, in the assay with MDA-MB-435 [1] (read-out: pIC50 (converted)), the IC50 is 2.63 µM. In addition, in assay [2], the EC50 came to 14 µM and the pEC50 was 4.85.

As to `COc1cccc(N(C)c2nc(C)nc3c2C[C@H](C)C3)c1`, in the assay on MDA-MB-435 [1] (read-out: IC50), the IC50 worked out at 0.095 µM. The IC50 with MDA-MB-435 [1] (read-out: pIC50 (converted)) is 0.0955 µM. In assay [2], this molecule yielded an EC50 of 1.6 µM and a pEC50 of 5.8.

In assay [3], `CCCCOC(=O)c1[nH]c(Br)c(-c2ccc(OC)c(OC)c2)c1Br` displayed an EC50 of 33 µM and a pEC50 of 4.48.

In assay [3], `COc1ccc(-c2c(Br)[nH]c(C(=O)OCCCN(C)C)c2Br)cc1OC.Cl` returned an EC50 of 100 µM and a pEC50 of 4.

Consider `COc1ccc(N(C)c2ncnc3cc[nH]c23)cc1`, for which the response in assay [3] was half-maximal at 1.4 µM (EC50). This molecule also gave a pEC50 in assay [3] of 5.85. In addition, the IC50 is 0.193 µM in the assay on MDA-MB-435 [4] (read-out: IC50) and 0.195 µM with MDA-MB-435 [4] (read-out: pIC50 (converted)).

As to `O=C1/C(=C/c2cc(Cl)cc(Cl)c2)Cc2cc(O)c(O)cc21`, the IC50 in the assay on Jurkat (read-out: IC50) was > 50 µM; with Jurkat (read-out: pIC50 (converted)), 100 µM.

With `CCOC(=O)c1c[nH]c(C(=O)c2ccc(OC)cc2)c1-c1ccc(OC)cc1`, in the assay with MDA-MB-435 [1] (read-out: IC50), the IC50 is 100 µM. The IC50 in the assay with MDA-MB-435 [1] (read-out: pIC50 (converted)) was 100 µM. In addition, in assay [2], it took 500 µM to reach a half-maximal effect (EC50) and the pEC50 came to 3.3.
